Experimental data as given in patent US9458104B2 (priority 2012, dated 2016).

Tests used:
[1] = target: T1, RORγ ligand binding domain (LBD) (Homo sapiens, UniProt P51449); test: TR-FRET Activity Assay (ligand sensing assay, RORγ-LBD / coactivator peptide interaction); format: biochemical
T1 construct: made in house; host or cells: E. coli BL-21 (BL3), vector pDEST15
T1 sequence (P51449 269-508 limits assumed): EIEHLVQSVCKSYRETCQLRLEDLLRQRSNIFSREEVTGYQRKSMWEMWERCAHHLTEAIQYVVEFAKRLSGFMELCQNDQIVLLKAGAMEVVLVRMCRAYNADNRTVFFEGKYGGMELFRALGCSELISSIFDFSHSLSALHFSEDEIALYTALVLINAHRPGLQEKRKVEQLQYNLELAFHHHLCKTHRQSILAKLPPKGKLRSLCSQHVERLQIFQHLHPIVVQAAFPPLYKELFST
Procedure, shortened: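 GST-RORγ LBD expressed in bacteria, 20–60 ng/well, with biotinylated coactivator peptide 200–600 nM, streptavidin-APC and Eu-anti-GST. Buffer: 20 mM Tris-HCl pH 6.8, 60 mM KCl, 1 mM DTT, 5 mM MgCl2, BSA; 1% DMSO. LANCE TR-FRET 665/615 nm ratio; IC50 from four-parameter logistic fit.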

RORγ = target: T2, RORγ (UniProt P51449); format: cell-based; conditions: 293T cells, 16 h; for pIC50 (FF): firefly (FF) luciferase; for pIC50 (REN): renilla normalised (RENnorm) luciferase
T2 construct: hRORg-LBD|aa259-518|NP_005051.2; hRORgt|aa1-497|NP_001001523 (RORg, t isoform, 497aa); mRORg-LBD|aa264-516|NP_035411
T2 sequence (P51449 1-518): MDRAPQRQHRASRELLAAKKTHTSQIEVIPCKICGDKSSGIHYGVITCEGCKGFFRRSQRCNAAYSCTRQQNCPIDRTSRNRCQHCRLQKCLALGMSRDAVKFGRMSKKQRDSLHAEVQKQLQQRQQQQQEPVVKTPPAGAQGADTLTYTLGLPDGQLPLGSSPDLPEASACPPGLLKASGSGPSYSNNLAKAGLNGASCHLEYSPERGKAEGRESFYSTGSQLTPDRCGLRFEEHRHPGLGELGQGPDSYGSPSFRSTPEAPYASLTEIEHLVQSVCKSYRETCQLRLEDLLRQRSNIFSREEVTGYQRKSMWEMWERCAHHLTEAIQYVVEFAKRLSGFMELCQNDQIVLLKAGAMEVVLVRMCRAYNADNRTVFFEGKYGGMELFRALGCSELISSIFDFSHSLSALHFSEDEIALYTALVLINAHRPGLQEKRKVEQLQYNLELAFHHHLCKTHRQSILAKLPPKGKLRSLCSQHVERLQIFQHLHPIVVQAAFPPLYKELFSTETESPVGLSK

Row | Structure (SMILES) | IC50 [1] [nM] | pIC50 (FF) (RORγ) | pIC50 (REN) (RORγ)
1 | Cc1cc(-c2nc(C(N)=O)nn2CC2CCCCC2)cc(C(C)(C)C)c1O [Example 308, 5-(3-(tert-Butyl)-4-hydroxy-5-methylphenyl)-1-(cyclohexylmethyl)-1H-1,2,4-triazole-3-carboxamide] | 7940 | 6.0 | 5.9
2 | CC(C)(C)c1cc(-c2nc(S(N)(=O)=O)nn2CC2CCCCC2)cc(C(C)(C)C)c1 [Example 309, 1-(Cyclohexylmethyl)-5-(3,5-di-tert-butylphenyl)-1H-1,2,4-triazole-3-sulfonamide] | 3160 | < 4.7 | < 4.7
3 | CC(=O)NS(=O)(=O)c1nc(-c2cc(C(C)(C)C)cc(C(C)(C)C)c2)n(CC2CCCCC2)n1 [Example 310, N-((1-(Cyclohexylmethyl)-5-(3,5-di-tert-butylphenyl)-1H-1,2,4-triazol-3-yl)sulfonyl)acetamide] | 12600 | < 4.7 | < 4.7
4 | CC(C)(C)c1cc(-n2nc(C(N)=O)cc2CC2CCCCC2)cc(C(C)(C)C)c1 [Example 312, 5-(Cyclohexylmethyl)-1-(3,5-di-tert-butylphenyl)-1H-pyrazole-3-carboxamide] | 251 | 6.2 | 6.3
5 | CC(C)(C)c1cc(-n2nc(C(=O)NS(C)(=O)=O)cc2CC2CCCCC2)cc(C(C)(C)C)c1 [Example 312/1] | 6310 | < 4.7 | < 4.7
6 | CC(C)(C)c1cc(-n2nc(C(N)=O)c(Cl)c2CC2CCCCC2)cc(C(C)(C)C)c1 [Example 313, 4-Chloro-5-(cyclohexylmethyl)-1-(3,5-di-tert-butylphenyl)-1H-pyrazole-3-carboxamide] | 100 | 6.3 | 6.4
7 | CC(C)(C)c1cc(-n2nc(C(N)=O)c(Cl)c2CC2CCCCC2)cc(C(C)(C)C)n1 [Example 315, 4-Chloro-5-(cyclohexylmethyl)-1-(2,6-di-tert-butylpyridin-4-yl)-1H-pyrazole-3-carboxamide] | 126 | 6.7 | 6.7
8 | COC(C)(C)c1cc(-n2nc(C(N)=O)c(Cl)c2CC2CCCCC2)cc(C(C)(C)C)c1 [Example 315/1] | 1000 | 6.0/6.0/6.0 | 6.0/6.0/6.0
9 | Cn1c(C(=O)O)cc(-c2ccc(S(=O)(=O)NC(C)(C)C)c3ccccc23)c1CC1CCCCC1 [Example 317, 4-(4-(N-(tert-Butyl)sulfamoyl)naphthalen-1-yl)-5-(cyclohexylmethyl)-1-methyl-1H-pyrrole-2-carboxylic acid] | 1260 | 6.9 | 6.9
10 | CC(C)(C)NS(=O)(=O)c1ccc(-n2nc(C(=O)N[C@H]3C[C@H](C(=O)O)C3)nc2CC2CCCCC2)cc1C(C)(C)C [Example 318, trans-3-(1-(3-(tert-Butyl)-4-(N-(tert-butyl)sulfamoyl)phenyl)-5-(cyclohexylmethyl)-1H-1,2,4-triazole-3-carboxamido)cyclobutanecarboxylic acid] | 2000 | < 4.7 | < 4.7
11 | CC(C)(C)NS(=O)(=O)c1ccc(-n2nc(C(=O)NC3CCOCC3)nc2CC2CCCCC2)cc1C(C)(C)C [Example 318/1] | 2510 | 6.2 | 6.2
12 | Cc1c(C(=O)NC2CCOCC2)cc(-c2ccc(S(=O)(=O)NC(C)(C)C)c(C(F)(F)F)c2)n1CC(C(F)(F)F)C(F)(F)F [Example 319, 5-(4-(N-(tert-Butyl)sulfamoyl)-3-(trifluoromethyl)phenyl)-2-methyl-N-(tetrahydro-2H-pyran-4-yl)-1-(3,3,3-trifluoro-2-(trifluoromethyl)propyl)-1H-pyrrole-3-carboxamide] | 5010 | 6.0 | 5.8
13 | CC(=O)c1cc(-c2cc(C(C)(C)C)cc(C(C)(C)C)c2)n(CC2CCCCC2)c1C [Example 321, 1-(1-(Cyclohexylmethyl)-5-(3,5-di-tert-butylphenyl)-2-methyl-1H-pyrrol-3-yl)ethanone] | 794 | 5.8 | 6.0
14 | C=CCCC(=O)c1cc(-c2cc(C(C)(C)C)cc(C(C)(C)C)c2)n(CC2CCCCC2)c1C [Example 322, 1-(1-(Cyclohexylmethyl)-5-(3,5-di-tert-butylphenyl)-2-methyl-1H-pyrrol-3-yl)pent-4-en-1-one] | 1580 | < 4.7 | < 4.7
15 | Cc1c(C(=O)CC2CC2)cc(-c2cc(C(C)(C)C)cc(C(C)(C)C)c2)n1CC1CCCCC1 [Example 324, 1-(1-(Cyclohexylmethyl)-5-(3,5-di-tert-butylphenyl)-2-methyl-1H-pyrrol-3-yl)-2-cyclopropylethanone] | 631 | < 4.7 | < 4.7
16 | Cc1c(S(=O)(=O)CC2CC2)cc(-c2cc(C(C)(C)C)cc(C(C)(C)C)c2)n1CC1CCCCC1 [Example 325, 1-(Cyclohexylmethyl)-3-((cyclopropylmethyl)sulfonyl)-5-(3,5-di-tert-butylphenyl)-2-methyl-1H-pyrrole] | 398 | 6.1 | 6.1
17 | CCS(=O)(=O)c1cc(-c2cc(C(C)(C)C)cc(C(C)(C)C)c2)n(CC2CCCCC2)c1C [Example 325/1] | 251 | 6.0 | 6.3
